From the NIST ThermoML archive (doi:10.1016/j.jct.2016.06.017)

Experiments:
[1] = 100 kPa, Liquid, Frequency=0.01 MHz, Alternating current cell with electrodes
[2] = xn = mol fraction of the nth substance listed; settings: 100 kPa, Liquid, Frequency=0.01 MHz, Alternating current cell with electrodes

CCCCn1cc[n+](C)c1.N#CN=C=[N-] [1-butyl-3-methylimidazolium dicyanamide]
[1]
Settings | electrical conductivity [S/m]
273.15 K | 0.383
283.15 K | 0.636
293.15 K | 0.972
298.15 K | 1.17
303.15 K | 1.39
313.15 K | 1.89
323.15 K | 2.46

CCCCn1cc[n+](C)c1.N#CN=C=[N-] [1-butyl-3-methylimidazolium dicyanamide] + O=C1CCCO1
[2], x1 = 1
Settings | electrical conductivity [S/m]
273.15 K | 0.383
283.15 K | 0.636
293.15 K | 0.972
298.15 K | 1.17
303.15 K | 1.39
313.15 K | 1.89
323.15 K | 2.46

O=C1CCCO1 [γ-butyrolactone] + CCCCn1cc[n+](C)c1.N#CN=C=[N-]
electrical conductivity [S/m], [2]
Settings | x2 = 0.0504 | x2 = 0.1002 | x2 = 0.2002 | x2 = 0.2984 | x2 = 0.4005 | x2 = 0.4954 | x2 = 0.6957 | x2 = 0.8871
273.15 K | 1.05 | 1.4 | 1.518 | 1.35 | 1.13 | 0.924 | 0.639 | 0.454
283.15 K | 1.27 | 1.71 | 1.918 | 1.77 | 1.54 | 1.32 | 0.968 | 0.736
293.15 K | 1.5 | 2.03 | 2.35 | 2.24 | 2.012 | 1.78 | 1.37 | 1.09
298.15 K | 1.62 | 2.2 | 2.58 | 2.49 | 2.27 | 2.03 | 1.606 | 1.3
303.15 K | 1.74 | 2.38 | 2.814 | 2.75 | 2.53 | 2.29 | 1.85 | 1.53
313.15 K | 1.98 | 2.73 | 3.301 | 3.29 | 3.101 | 2.87 | 2.401 | 2.04
323.15 K | 2.23 | 3.09 | 3.81 | 3.87 | 3.707 | 3.48 | 3.009 | 2.625
